Test results published in patent US20160318987A1 (MEDIMMUNE LIMITED, priority 2013, published 2016).
Entries after “also recorded” stand apart in the source; their conditions may differ. Where a SMILES comes first, the peptide text is derived from it. [ ]: non-standard residue; d: D form. The star is where a group is joined. Palmitoyl = CCCCCCCCCCCCCCCC(=O)*; αMeF = C[C@](N)(Cc1ccccc1)C(=O)O; αMeK = C[C@](N)(CCCCN)C(=O)O; αMeV = CC(C)[C@](C)(N)C(=O)O; Aib = CC(C)(N)C(=O)O

Tests used:
Chymotrypsin (rhCTRC) [1] = target: T1, Chymotrypsin (rhCTRC) (Homo sapiens, UniProt Q99895); experiment: chymotrypsin stability study (LC/MS); type: in vitro ADME; settings: for Chymotrypsin cleavage/liability (Discussion / Description): Table 2 description
T1 construct: purchased R&D Systems 6907-SE-010
T1 sequence (Q99895 30-268): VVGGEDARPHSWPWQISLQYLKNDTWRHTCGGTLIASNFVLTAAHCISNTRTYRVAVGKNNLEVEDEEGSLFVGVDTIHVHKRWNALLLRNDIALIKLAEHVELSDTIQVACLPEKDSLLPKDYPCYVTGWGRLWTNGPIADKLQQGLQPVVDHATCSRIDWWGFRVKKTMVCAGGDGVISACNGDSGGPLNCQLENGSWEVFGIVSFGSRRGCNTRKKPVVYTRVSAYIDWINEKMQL
Protocol: (§1) Peptides for evaluation were prepared to a concentration of 1.0 mg/mL solutions in either pure water, sterile saline for injection (0.9% w/v NaCl/water) or 1× PBS (Dulbecco). 100 μL (100 μg/mL peptide) of these solutions was added to 900 μL of each protease solution. Additional experiments were performed examining protein degradation during exposure to serum and gastric fluid. For serum studies, peptides were incubated with 50% female Sprague-Dawley strain rat serum (SD rat serum). For gastric fluid studies, peptides were incubated 1:1 (volume:volume), fresh rat gastric fluid.
(§2) The peptide and enzyme (or serum or gastric fluid) were co-incubated in a temperature regulated water bath at 37° C. for the duration of the experiment. During each experiment 100 μL aliquots (10 μg peptide) of the incubated peptide-enzyme mixture were withdrawn periodically, quenched by addition of an equal volume of 5% TFA (v/v) in 1:1 water/acetonitrile to arrest proteolytic activity, and analyzed by liquid chromatography-mass spectrometry (LC/MS): Agilent Polaris C8-A column (4.6×100 mm, 3 micron) using a linear binary gradient of 10-90% MeCN (0.1% TFA v/v) in water (0.1% TFA v/v) over 30 minutes at 1.5 mL min^−1 at ambient temperature. Analytes were detected by both UV absorption at 210 nm and ionization using a Waters 3100 mass detector (ESI^+ mode). New peptidic species (fragments) derived from enzymatic cleavage of peptides were analyzed post-process, and their molecular masses were used to identify the precise cleavage position (highlighting the scissile bond in each case).

hGLP-1R = target: T2, hGLP-1R (Homo sapiens, UniProt P43220); experiment: cAMP functional assay, cells expressing human GLP-1 receptor (primary assay); type: cell-based; settings: n = 2
T2 construct: expressed in transfected cells
T2 sequence (P43220 24-463): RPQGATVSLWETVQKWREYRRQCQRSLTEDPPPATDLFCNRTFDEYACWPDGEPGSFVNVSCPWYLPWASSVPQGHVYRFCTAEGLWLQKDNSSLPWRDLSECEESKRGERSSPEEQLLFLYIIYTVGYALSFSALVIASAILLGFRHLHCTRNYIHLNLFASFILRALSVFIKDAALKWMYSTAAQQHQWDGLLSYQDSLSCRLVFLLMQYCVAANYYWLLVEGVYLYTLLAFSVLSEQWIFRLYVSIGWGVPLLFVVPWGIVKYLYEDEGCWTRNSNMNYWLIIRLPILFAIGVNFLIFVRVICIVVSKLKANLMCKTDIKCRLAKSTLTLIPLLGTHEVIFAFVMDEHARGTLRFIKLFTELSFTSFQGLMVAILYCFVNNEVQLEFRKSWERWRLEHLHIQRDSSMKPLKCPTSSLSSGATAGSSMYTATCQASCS

hGIP-R = target: T3, hGIP-R (Homo sapiens, UniProt P48546); experiment: cAMP functional assay, cells expressing human GIP receptor (primary assay); type: cell-based; settings: n = 2
T3 construct: expressed in transfected cells
T3 sequence (P48546 22-466): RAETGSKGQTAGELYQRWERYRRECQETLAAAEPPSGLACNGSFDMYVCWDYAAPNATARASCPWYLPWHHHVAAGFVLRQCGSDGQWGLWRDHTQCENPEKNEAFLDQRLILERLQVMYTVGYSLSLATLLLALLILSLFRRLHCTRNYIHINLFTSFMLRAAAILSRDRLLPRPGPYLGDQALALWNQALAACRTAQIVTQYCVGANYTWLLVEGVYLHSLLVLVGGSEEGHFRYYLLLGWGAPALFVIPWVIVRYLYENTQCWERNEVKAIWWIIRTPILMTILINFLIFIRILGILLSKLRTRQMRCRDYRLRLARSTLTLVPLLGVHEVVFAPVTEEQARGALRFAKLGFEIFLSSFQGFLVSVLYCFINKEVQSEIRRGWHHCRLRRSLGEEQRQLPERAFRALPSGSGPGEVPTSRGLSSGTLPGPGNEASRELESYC

hGluc-R = target: T4, hGluc-R (Homo sapiens, UniProt P47871); experiment: cAMP functional assay, cells expressing human glucagon receptor (primary assay); type: cell-based; settings: n = 2
T4 construct: expressed in transfected cells
T4 sequence (P47871 26-477): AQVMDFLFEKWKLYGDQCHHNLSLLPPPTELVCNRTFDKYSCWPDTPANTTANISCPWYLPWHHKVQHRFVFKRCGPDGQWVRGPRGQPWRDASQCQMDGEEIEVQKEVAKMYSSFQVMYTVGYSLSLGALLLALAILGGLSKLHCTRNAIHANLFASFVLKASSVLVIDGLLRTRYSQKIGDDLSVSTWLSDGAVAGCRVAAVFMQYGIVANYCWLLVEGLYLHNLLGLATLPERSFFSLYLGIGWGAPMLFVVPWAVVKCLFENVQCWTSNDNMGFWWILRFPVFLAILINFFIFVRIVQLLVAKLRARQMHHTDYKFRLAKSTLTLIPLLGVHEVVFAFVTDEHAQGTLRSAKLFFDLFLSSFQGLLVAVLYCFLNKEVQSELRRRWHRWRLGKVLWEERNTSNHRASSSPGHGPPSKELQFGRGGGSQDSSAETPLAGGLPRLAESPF

[2] = target: T5, trypsin from porcine pancreas (Sus scrofa, UniProt P00761); experiment: trypsin stability study (LC/MS); type: in vitro ADME
T5 construct: purchased Sigma P7409; host or cells: porcine pancreas
T5 sequence (P00761 9-231): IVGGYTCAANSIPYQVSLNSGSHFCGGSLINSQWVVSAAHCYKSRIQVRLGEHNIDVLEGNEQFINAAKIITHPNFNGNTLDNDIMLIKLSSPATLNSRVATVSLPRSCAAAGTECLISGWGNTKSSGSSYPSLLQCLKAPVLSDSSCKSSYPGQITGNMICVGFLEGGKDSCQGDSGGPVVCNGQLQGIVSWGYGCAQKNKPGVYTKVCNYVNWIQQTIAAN
Protocol: as §1, §2

Neprilysin (rhNEP) = target: T6, Neprilysin (rhNEP) (Homo sapiens, UniProt P08473); experiment: neprilysin stability study (LC/MS); type: in vitro ADME; settings: Table 2 description
T6 construct: purchased R&D Systems 1182-ZNC-010
T6 sequence (P08473 52-750 limits assumed): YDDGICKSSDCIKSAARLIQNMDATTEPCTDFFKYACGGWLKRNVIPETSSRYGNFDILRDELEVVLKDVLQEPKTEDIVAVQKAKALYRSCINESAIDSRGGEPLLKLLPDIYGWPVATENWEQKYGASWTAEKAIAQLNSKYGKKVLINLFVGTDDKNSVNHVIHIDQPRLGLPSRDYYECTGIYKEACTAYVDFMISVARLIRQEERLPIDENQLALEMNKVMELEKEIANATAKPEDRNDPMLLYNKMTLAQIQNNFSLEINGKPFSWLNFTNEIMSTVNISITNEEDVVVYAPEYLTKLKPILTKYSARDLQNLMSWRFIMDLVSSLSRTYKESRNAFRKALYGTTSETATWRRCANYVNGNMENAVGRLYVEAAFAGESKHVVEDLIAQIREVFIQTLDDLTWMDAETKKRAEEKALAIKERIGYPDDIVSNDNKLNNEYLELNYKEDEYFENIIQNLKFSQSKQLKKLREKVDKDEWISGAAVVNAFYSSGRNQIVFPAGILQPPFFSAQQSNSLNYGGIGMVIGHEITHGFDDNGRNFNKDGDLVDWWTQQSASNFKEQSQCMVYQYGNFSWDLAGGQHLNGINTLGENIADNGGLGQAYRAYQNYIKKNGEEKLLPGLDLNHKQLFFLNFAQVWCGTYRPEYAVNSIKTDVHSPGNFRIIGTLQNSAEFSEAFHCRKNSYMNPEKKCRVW
Protocol: as §1, §2

[3] = system: DPP-IV, Neprilysin, Chymotrypsin, Trypsin, Pepsin; experiment: enzyme resistance, protease panel (Table 2 description); type: in vitro ADME
Protocol: as §1, §2

[4] = gastric fluid stability study (LC/MS); type: in vitro ADME, rat
Protocol: as §1, §2

Chymotrypsin (rhCTRC) [5] = experiment: 1.0 μg rhCTRC in 900 μL assay buffer: 50 mM Tris, 10 mM CaCl2, 150 mM NaCl, 1 mM HCl, pH 7.8; settings: 37° C., up to over 60 hours
Trypsin = experiment: 1 mg/mL lyophilized trypsin from porcine pancreas in 50 mM Tris, 10 mM CaCl2, 150 mM NaCl, 1 mM HCl, pH 7.8; settings: 37° C., up to over 18 hours
[6] = system: Neprilysin (Neutral endopeptidase, rhNEP); experiment: 1.0 μg rhNEP in 900 μL assay buffer: 50 mM Tris, 50 mM NaCl, 50 mM NaHCO3, pH 8.3; settings: 37° C., up to 240 hours

Molecule	Chymotrypsin cleavage/liability (Discussion / Description) (Chymotrypsin (rhCTRC) [1])	EC50 (hGLP-1R)	EC50 (hGIP-R)	EC50 (hGluc-R)	also measured
CC[C@H](C)[C@H](NC(=O)[C@](C)(Cc1ccccc1)NC(=O)[C@H](CCC(=O)O)NC(=O)[C@H](CCCCN)NC(=O)[C@H](C)NC(=O)[C@H](C)NC(=O)[C@H](CCC(N)=O)NC(=O)CNC(=O)[C@H](CCC(=O)O)NC(=O)[C@H](CC(C)C)NC(=O)[C@](C)(Cc1ccccc1)NC(=O)[C@H](CO)NC(=O)[C@H](CO)NC(=O)[C@@H](NC(=O)[C@H](CC(=O)O)NC(=O)[C@H](CO)NC(=O)[C@@H](NC(=O)[C@](C)(Cc1ccccc1)NC(=O)[C@H](CO)NC(=O)CNC(=O)[C@H](CCC(=O)O)NC(=O)C(C)(C)NC(=O)[C@@H](N)Cc1c[nH]cn1)[C@@H](C)O)C(C)C)C(=O)N[C@@H](C)C(=O)N[C@@](C)(Cc1ccccc1)C(=O)N[C@@H](CC(C)C)C(=O)N[C@](C)(C(=O)N[C@@H](CCCCN)C(=O)NCC(=O)N[C@@H](CCCNC(=N)N)C(N)=O)C(C)C [SEQ ID NO: 41, H-(Aib)^2-EG-(S)^5-(α-MeF)^6-TSDV^10 SS-(α-MeF)^13-LE^15 GQAAK^20 E-(α-MeF)^22-IA-(α-MeF)^25 L-(α-MeV)^27-KGR^30] (H-H[Aib]EGS[αMeF]TSDVSS[αMeF]LEGQAAKE[αMeF]IA[αMeF]L[αMeV]KGR-NH2)	MeVal^27 overcomes	0.0546 nM	102 nM	–	–
CC[C@H](C)[C@H](NC(=O)[C@](C)(Cc1ccccc1)NC(=O)[C@H](CCC(=O)O)NC(=O)[C@](C)(CCCCN)NC(=O)[C@H](C)NC(=O)[C@H](C)NC(=O)[C@H](CCC(N)=O)NC(=O)CNC(=O)[C@H](CCC(=O)O)NC(=O)[C@H](CC(C)C)NC(=O)[C@](C)(Cc1ccccc1)NC(=O)[C@H](CO)NC(=O)[C@H](CO)NC(=O)[C@@H](NC(=O)[C@H](CC(=O)O)NC(=O)[C@H](CO)NC(=O)[C@@H](NC(=O)[C@](C)(Cc1ccccc1)NC(=O)[C@H](CO)NC(=O)CNC(=O)[C@H](CCC(=O)O)NC(=O)C(C)(C)NC(=O)[C@@H](N)Cc1c[nH]cn1)[C@@H](C)O)C(C)C)C(=O)N[C@@H](C)C(=O)N[C@@](C)(Cc1ccccc1)C(=O)N[C@@H](CC(C)C)C(=O)N[C@H](C(=O)N[C@@](C)(CCCCN)C(=O)NCC(=O)NCC(N)=O)C(C)C [SEQ ID NO: 46, H-(Aib)^2-EG-(S)^5-(α-MeF)^6-TSDV^10 SS-(α-MeF)^13-LE^15 GQAA-(α-MeK)^20 E-(α-MeF)^22-IA-(α-MeF)^25 LV-(α-MeK)^28-G-(G)^30] (H-H[Aib]EGS[αMeF]TSDVSS[αMeF]LEGQAA[αMeK]E[αMeF]IA[αMeF]LV[αMeK]GG-NH2)	–	0.0141 nM	103 nM	103 nM	Trypsin resistance/susceptibility (Discussion / Description) ([2]; Table 2 description): resistance, maintaining; Neprilysin resistance (Discussion / Description) (Neprilysin (rhNEP)): resistance, maintaining
CC[C@H](C)[C@H](NC(=O)[C@](C)(Cc1ccccc1)NC(=O)[C@H](CCC(=O)O)NC(=O)[C@](C)(CCCCN)NC(=O)[C@H](C)NC(=O)[C@H](C)NC(=O)[C@H](CCC(N)=O)NC(=O)CNC(=O)[C@H](CCC(=O)O)NC(=O)[C@H](CC(C)C)NC(=O)[C@](C)(Cc1ccccc1)NC(=O)[C@H](CO)NC(=O)[C@H](CO)NC(=O)[C@@H](NC(=O)[C@H](CC(=O)O)NC(=O)[C@H](CO)NC(=O)[C@@H](NC(=O)[C@](C)(Cc1ccccc1)NC(=O)[C@H](CO)NC(=O)CNC(=O)[C@H](CCC(=O)O)NC(=O)C(C)(C)NC(=O)[C@@H](N)Cc1c[nH]cn1)[C@@H](C)O)C(C)C)C(=O)N[C@@H](C)C(=O)N[C@@](C)(Cc1ccccc1)C(=O)N[C@H](C(=O)N[C@H](C(=O)N[C@@](C)(CCCCN)C(=O)NCC(=O)NCC(N)=O)C(C)C)C(C)C [SEQ ID NO: 51, H-(Aib)^2-EG-(S)^5-(α-MeF)^6-TSDV^10 SS-(α-MeF)^13-LE^15 GQAA-(α-MeK)^20 E-(α-MeF)^22-IA-(α-MeF)^25-(V)^26-V-(α-MeK)^28-G-(G)^30] (H-H[Aib]EGS[αMeF]TSDVSS[αMeF]LEGQAA[αMeK]E[αMeF]IA[αMeF]VV[αMeK]GG-NH2)	overcoming Chymotrypsin	0.0219 nM	104 nM	104 nM	duration of stability, no major cleavage products (Chymotrypsin (rhCTRC) [1]; chymotrypsin, 37° C.): over 60 hours; duration of stability ([2]; trypsin, 37° C.): over 18 hours
CCCCCCCCCCCCCCCC(=O)NCCCC[C@H](NC(=O)CNC(=O)CNC(=O)[C@](C)(CCCCN)NC(=O)[C@@H](NC(=O)[C@@H](NC(=O)[C@](C)(Cc1ccccc1)NC(=O)[C@H](C)NC(=O)[C@@H](NC(=O)[C@](C)(Cc1ccccc1)NC(=O)[C@H](CCC(=O)O)NC(=O)[C@](C)(CCCCN)NC(=O)[C@H](C)NC(=O)[C@H](C)NC(=O)[C@H](CCC(N)=O)NC(=O)CNC(=O)[C@H](CCC(=O)O)NC(=O)[C@H](CC(C)C)NC(=O)[C@](C)(Cc1ccccc1)NC(=O)[C@H](CO)NC(=O)[C@H](CO)NC(=O)[C@@H](NC(=O)[C@H](CC(=O)O)NC(=O)[C@H](CO)NC(=O)[C@@H](NC(=O)[C@](C)(Cc1ccccc1)NC(=O)[C@H](CO)NC(=O)CNC(=O)[C@H](CCC(=O)O)NC(=O)C(C)(C)NC(=O)[C@@H](N)Cc1c[nH]cn1)[C@@H](C)O)C(C)C)[C@@H](C)CC)C(C)C)C(C)C)C(N)=O [SEQ ID NO: 52, H-(Aib)^2-EG-(S)^5-(α-MeF)^6-TSDV^10 SS-(α-MeF)^13-LE^15 GQAA-(α-MeK)^20 E-(α-MeF)^22-IA-(α-MeF)^25-(V)^26-V-(α-MeK)^28-G-(G)^30-K(Ε-Palm)] (H-H[Aib]EGS[αMeF]TSDVSS[αMeF]LEGQAA[αMeK]E[αMeF]IA[αMeF]VV[αMeK]GGK(Palmitoyl)-NH2)	–	0.41 nM	93.1 nM	93.1 nM	enzyme resistance (DPP-IV, Neprilysin, Chymotrypsin, Trypsin, Pepsin) [3]: excellent enzyme resistance; stability relative to Liraglutide ([4]; rat gastric fluid 1:1): significantly exceeds; stability relative to lipidated comparator SEQ ID NO: 5 ([4]; rat gastric fluid 1:1): significantly exceeds; spectrum over the time course ([4]; rat gastric fluid, zoomed spectra): virtually unchanged spectrum
H-(Aib)^2-EG-(S)^5-(α-MeF)^6-TSDV^10 SS-(α-MeF)^13-LE^15 GQAA-(α-MeK)^20 E-(α-MeF)^22-IA-(α-MeF)^25-(V)^26-V-(α-MeK)^28-G-(G)30	–	–	–	–	not cleaved (Chymotrypsin (rhCTRC) [5]): stability for over 60 hours, with no major cleavage products observed; not cleaved (Trypsin): significantly extended stability for over 18 hours
H-(Aib)^2-EGT^5 FTSDV^10 SSYLE^15 GQAAK^20 EFIAW^25 LVKGR^30	–	–	–	–	cleaved bond [6]: T5-Phe6; also recorded: S12-Tyr13; also recorded: E21-Phe22; also recorded: A24-Trp25; cleaved bond (Trypsin): Lys20-E21, by 90 minutes; also recorded: Lys28-G29, by 90 minutes
